What all share (test): LYPLA1 and LYPLA2 inhibitors, biochemical, gel-based ABPP, fluorescence, recombinant and endogenous enzyme (AID 493105)
One assay relates to rhLYPLA2. The following applies: fluorescent probe labeling, membrane fraction, at 20 µM, active compounds read high.
A further assay concerns emLYPLA1. As to conditions: fluorescent probe labeling, membrane fraction, at 20 µM, active compounds read high.
A further assay deals with rhLYPLA1. As to conditions: fluorescent probe labeling, soluble fraction, at 20 µM, active compounds read high.
The subject of another assay is emLYPLA2. The following applies: fluorescent probe labeling, membrane fraction, at 20 µM, active compounds read high.

Structures are written as SMILES. Activity calls are given as the source filed them. How the calls were made is not given here.

The values below come from PubChem BioAssay AID493105 (The Scripps Research Institute Molecular Screening Center, 2011).

Broadly, the inhibition is the change of the read-out against control, counted positive when it falls.

For `O=c1ccc2ccc(Oc3ccc([N+](=O)[O-])cc3Cl)cc2o1`, the inhibition is 6% (inactive) in the assay with rhLYPLA2, 0% (inactive) in the assay on emLYPLA1, 0% (inactive) in the assay on rhLYPLA1 and 17% (inactive) with emLYPLA2.

For the compound `COc1cc(COc2ccc3c(C)c(Cc4ccccc4)c(=O)oc3c2)cc(OC)c1OC`, the inhibition with rhLYPLA2 is 0% (inactive); with emLYPLA1, 0% (inactive); in the assay with rhLYPLA1, 0% (inactive); in the assay on emLYPLA2 it was 4% (inactive).

`O=C1N=C(N2CCN(Cc3ccccc3)CC2)S/C1=C/c1cccs1`: the inhibition in the assay with rhLYPLA2 is 2% (inactive); in the assay with emLYPLA1 it was 4% (inactive); in the assay with rhLYPLA1, 0% (inactive); with emLYPLA2 it was 0% (inactive).

Consider `O=C(Nc1ccc2oc(-c3cccnc3)nc2c1)c1ccc2c(c1)OCCO2`, for which the inhibition in the assay with rhLYPLA2, in the assay on emLYPLA1, in the assay with rhLYPLA1 and in the assay with emLYPLA2 was 0% (inactive) in each case.

Regarding `C/C(=C\c1ccccc1)CN1CCN(c2cccc(Cl)c2)CC1`, the inhibition in the assay on rhLYPLA2, in the assay with emLYPLA1, with rhLYPLA1 and with emLYPLA2 was 0% (inactive) each time.

As to `Cc1nn(-c2ccccc2)c(N2CCCC2)c1/C=N/Nc1ccc(S(N)(=O)=O)cc1[N+](=O)[O-]`, the inhibition in the assay on rhLYPLA2 is 0% (inactive); with emLYPLA1, 0% (inactive); in the assay with rhLYPLA1, 7% (inactive); in the assay on emLYPLA2, 1% (inactive).

As to `CC(=O)c1ccc(N2CCN(C(=O)c3cccc(Oc4ccccc4)c3)CC2)cc1`, the inhibition in the assay with rhLYPLA2 was 12% (inactive); in the assay on emLYPLA1, 0% (inactive); in the assay with rhLYPLA1, 29% (inactive); with emLYPLA2 it was 0% (inactive).

As for `O=C(COc1ccc(Cl)cc1)N1CCN(c2cccc(C(F)(F)F)c2)CC1`, the inhibition in the assay with rhLYPLA2 was 0% (inactive); in the assay with emLYPLA1, 0% (inactive); in the assay with rhLYPLA1, 0% (inactive); with emLYPLA2, 9% (inactive).

On to `COc1ccc2c(c1)C(=O)[C@H](O)[C@@H](c1ccc(OC)c(Br)c1)O2`, for which the inhibition in the assay on rhLYPLA2 was 51%; in the assay with emLYPLA1, 0% (inactive); in the assay with rhLYPLA1 it was 0% (inactive); with emLYPLA2, 73%.

For the compound `COc1ccc(-n2nc(C(=O)NCC(=O)N3CCN(Cc4ccc5c(c4)OCO5)CC3)c3ccccc3c2=O)cc1OC`, the inhibition in the assay with rhLYPLA2 was 50%; in the assay with emLYPLA1, 8% (inactive); in the assay on rhLYPLA1, 35%; in the assay on emLYPLA2 it was 68%.

`COc1cccc(N=C2NC(=O)/C(=C/c3cc([N+](=O)[O-])ccc3O)S2)c1`: the inhibition in the assay on rhLYPLA2 was 0% (inactive); in the assay with emLYPLA1 it was 20% (inactive); in the assay with rhLYPLA1, 0% (inactive); in the assay with emLYPLA2, 6% (inactive).

As to `CC(=O)N1CCN(c2ccc(NC(=S)NC(=O)c3ccc(C)c([N+](=O)[O-])c3)cc2)CC1`, the inhibition was 5% (inactive) in the assay on rhLYPLA2, 0% (inactive) in the assay on emLYPLA1, 17% (inactive) in the assay with rhLYPLA1 and 14% (inactive) in the assay on emLYPLA2.

With `CC(=O)c1ccc(N2CCN(C(=O)c3ccc(C(=O)c4ccccc4)cc3)CC2)cc1`, the inhibition in the assay with rhLYPLA2 was 2% (inactive); in the assay on emLYPLA1, 13% (inactive); in the assay on rhLYPLA1 it was 0% (inactive); with emLYPLA2, 0% (inactive).

`O=C(c1ccc2n[nH]nc2c1)N1CCN(c2ccc(C(F)(F)F)cn2)CC1`: the inhibition with rhLYPLA2 was 32%; in the assay on emLYPLA1, 90%; with rhLYPLA1 it was 70%; in the assay with emLYPLA2, 57%.

Consider `O=C(CCN1CCN(c2ccc([N+](=O)[O-])cc2)CC1)c1ccc(Cl)cc1`, for which the inhibition in the assay with rhLYPLA2 was 6% (inactive); in the assay with emLYPLA1 it was 9% (inactive); in the assay with rhLYPLA1 it was 0% (inactive); in the assay on emLYPLA2 it was 1% (inactive).

Take `CC(=O)N1CCC2(CC1)C/C(=N\NC(=S)Nc1ccc(C)cc1)c1cc(O)ccc1O2`: the inhibition in the assay with rhLYPLA2 is 0% (inactive); with emLYPLA1, 0% (inactive); in the assay on rhLYPLA1, 3% (inactive); in the assay with emLYPLA2, 1% (inactive).

Take `N#Cc1c(NC(=O)CSc2nc(N)cc(=O)[nH]2)sc2c1CCCC2`: the inhibition in the assay on rhLYPLA2 is 3% (inactive); in the assay on emLYPLA1 it was 0% (inactive); in the assay with rhLYPLA1, 26% (inactive); in the assay with emLYPLA2 it was 0% (inactive).

On to `O=[N+]([O-])c1cccc(/C=N/N2CCN(Cc3ccc(Cl)cc3)CC2)c1`, for which the inhibition with rhLYPLA2, in the assay with emLYPLA1, in the assay on rhLYPLA1 and in the assay on emLYPLA2 was 0% (inactive) throughout.

Consider `Clc1ccc(C(c2ccc(Cl)cc2)n2cc[n+](CC(OCc3ccc(Cl)cc3Cl)c3ccc(Cl)cc3Cl)c2)cc1` (centres undefined), for which the inhibition in the assay with rhLYPLA2, with emLYPLA1, with rhLYPLA1 and in the assay with emLYPLA2 was 0% (inactive) each time.

`N#Cc1ccccc1OCCCN1CCC(Cc2ccccc2)CC1`: the inhibition is 0% (inactive) with rhLYPLA2, 11% (inactive) in the assay on emLYPLA1, 21% (inactive) with rhLYPLA1 and 9% (inactive) in the assay with emLYPLA2.

For the compound `OC(COc1ccc(Cl)cc1)CN1CCN(c2cccc(Cl)c2)CC1` (centres undefined), the inhibition in the assay on rhLYPLA2, in the assay on emLYPLA1, with rhLYPLA1 and in the assay on emLYPLA2 was 0% (inactive) in each case.

As to `O=C(COc1ccc(Br)cc1)N1CCN(c2ccc([N+](=O)[O-])c(N3CCCCC3)c2)CC1`, the inhibition is 7% (inactive) in the assay with rhLYPLA2, 0% (inactive) in the assay with emLYPLA1, 45% with rhLYPLA1 and 3% (inactive) in the assay on emLYPLA2.

Take `NS(=O)(=O)c1ccc(CCNC(=O)c2cc([N+](=O)[O-])ccc2N2CCCCC2)cc1`: the inhibition in the assay on rhLYPLA2 is 0% (inactive); in the assay with emLYPLA1, 0% (inactive); in the assay on rhLYPLA1, 49%; in the assay with emLYPLA2, 0% (inactive).

`CC(=O)N1CCC2(CC1)C/C(=N\NC(=S)Nc1ccccc1C)c1cc(O)ccc1O2`: the inhibition is 3% (inactive) with rhLYPLA2, 2% (inactive) in the assay on emLYPLA1, 0% (inactive) with rhLYPLA1 and 5% (inactive) in the assay on emLYPLA2.

In the case of `CCC(=O)N1CCN(c2ccc(NC(=S)NC(=O)c3ccc(OC)c([N+](=O)[O-])c3)cc2)CC1`, the inhibition with rhLYPLA2 is 21% (inactive); with emLYPLA1, 13% (inactive); in the assay on rhLYPLA1 it was 25% (inactive); with emLYPLA2 it was 40%.

Regarding `COc1ccc(OCC(O)CN2CCC(CN3C(=O)c4cccc5cccc(c45)C3=O)CC2)cc1` (centres undefined), the inhibition in the assay with rhLYPLA2 is 9% (inactive); in the assay with emLYPLA1, 0% (inactive); with rhLYPLA1, 0% (inactive); in the assay on emLYPLA2, 16% (inactive).
